Data on 71 compounds can be found in PubChem BioAssay AID624285 (Broad Institute, 2012).

Molecules are shown by their SMILES. Calls of active or inactive are those of the source.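 The calls were made as follows: active = signal-decreasing dose-response curve whose fitted half-maximal concentration is at or below twice the highest valid tested dose; inconclusive = flat fit at 30 to 70% signal loss, or poor fit; inactive = the rest.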

The assay is described as follows: cell viability loss after compound exposure – 24 h, luminescence, cherry-picked samples, cytotoxicity control for PDI inhibitor project, dose response (AID 624285). As to conditions: NIH3T3/HeLa viability, CellTiter-Glo ATP luminescence, 24 h; at 35 µM (top of the series).

In the case of `Cc1nnc(N/N=C/c2ccc(-c3ccccc3F)o2)n1N`, the activity change, negative = cytotoxicity was -8.41% (inactive). Turning to `O=C(c1c(O)cc(O)cc1O)C1c2c(cc(O)c3c2O[C@H](c2ccc(O)cc2)[C@@H](O)C3)OC1c1ccc(O)cc1` (stereo partly specified), the activity change, negative = cytotoxicity is -5.6% (inactive).

Take `COc1ccc(C2C(C(C)=O)=C(O)C(=O)N2CCc2c[nH]c3ccccc23)cc1OC` (stereo unspecified): the activity change, negative = cytotoxicity is -3.29% (inactive). As for `COc1cccc(-n2ccnc2SCC(=O)Nc2cc(OC)ccc2OC)c1`, the activity change, negative = cytotoxicity is -15.9% (inactive). Under `Cc1noc(C)c1S(=O)(=O)Nc1ccc2c(c1)CC(=O)N([C@H](C)CO)C[C@H](C)[C@H](CN(C)S(C)(=O)=O)O2` stands 1.83% (inactive); under `CC1(C(=O)N2CCCCC2)CCN1C(=O)Cc1ccc(-c2ccccc2)cc1` (stereo unspecified), -5.8% (inactive). On to `CCCc1cc(=O)[nH]c(SCCOc2ccc(OCC)cc2)n1`, for which the activity change, negative = cytotoxicity is -5.03% (inactive). Consider `CC1(C(=O)Nc2ccc3c(c2)OCCO3)CCN1C(=O)C1(c2ccc(Cl)cc2)CC1` (stereo unspecified), for which the activity change, negative = cytotoxicity is -11.6% (inactive). Take `CC(=O)OC[C@H]1O[C@@H](Oc2cc(O)cc3oc(-c4ccc(O)cc4)cc(=O)c23)[C@H](O[C@@H]2O[C@@H](C)[C@H](O)[C@@H](O)[C@H]2O)[C@@H](O)[C@@H]1O`: the activity change, negative = cytotoxicity is -6.13% (inactive). For `CN(C)S(=O)(=O)c1ccc(C(=O)Nc2ccc3nc(N4CCOCC4)sc3c2)cc1`, the activity change, negative = cytotoxicity was -20.7% (inactive). Under `Cc1ccc2nsnc2c1NC(=O)c1cccnc1Cl` stands -3.17% (inactive); under `O=C(NN1CC(C(=O)OCc2ccccc2F)CC1=O)c1ccccc1` (stereo unspecified), -2.89% (inactive); under `CCOc1ccc2[nH]c(=O)c(CN(CCO)C(=O)CC)cc2c1`, -9.33% (inactive). Turning to `O=C(CSc1n[nH]c(-c2ccccc2)n1)Nc1ccccc1O`, the activity change, negative = cytotoxicity was -6.55% (inactive). In the case of `CC(=O)Nc1cccc(NC(=O)CCc2ccccc2)c1` it was -12% (inactive); in that of `COc1ccc(CN(C)C[C@@H]2Oc3c(NS(C)(=O)=O)cccc3C(=O)N([C@H](C)CO)C[C@H]2C)cc1`, 2.2% (inactive); in that of `CC(NC(=O)COC(=O)Cc1ccccc1[N+](=O)[O-])c1ccccc1` (stereo unspecified), -0.036% (inactive).

In the case of `C[C@H]1CN([C@@H](C)CO)C(=O)c2cccc(NS(C)(=O)=O)c2O[C@H]1CN(C)Cc1ccc(Oc2ccccc2)cc1`, the activity change, negative = cytotoxicity is -4.63% (inactive). As for `COc1ccccc1N1CCN(C(=O)C(=O)N/N=C/c2cccc(O)c2)CC1`, the activity change, negative = cytotoxicity was -8.29% (inactive). In the case of `COc1cc(C(C)=O)ccc1OCC(=O)NCCCn1nc(C)cc1C`, the activity change, negative = cytotoxicity was -1.82% (inactive). As for `O=C1CCC(=O)N1c1nc2nc(-c3ccccc3)cc(-c3ccccc3)n2n1`, the activity change, negative = cytotoxicity was -9.12% (inactive). With `COc1ccc(C2c3ccc(O)cc3Oc3ncn(CCCO)c(=N)c32)cc1` (stereo unspecified), the activity change, negative = cytotoxicity was -8.08% (inactive). On to `CCOC(=O)c1c(CN2CCN(CCO)CC2)n(C)c2cc(Br)c(OC)cc12`, for which the activity change, negative = cytotoxicity was -17.2% (inactive).

`O=C(NC(=S)Nc1cccc(NC(=O)c2ccccc2)c1)c1cccc([N+](=O)[O-])c1`: the activity change, negative = cytotoxicity is -10.7% (inactive). For `CCOc1ccc(NC(=O)CN(C)C(=O)c2cc(C)nc3ccccc23)cc1OCC`, the activity change, negative = cytotoxicity is -13.4% (inactive). In the case of `Cc1ccc(S(=O)(=O)N2CCC(C(=O)Nc3ccc(S(=O)(=O)N4CCCC4)cc3)CC2)cc1` it was -22.6% (inactive). In the case of `CCOC(=O)c1c(-c2ccccc2)oc2cc(Br)c(O)cc12`, the activity change, negative = cytotoxicity is -20.5% (inactive). As for `CC(C)Oc1cccc(C(=O)NC(=S)Nc2cccc(NC(=O)c3ccccc3Cl)c2)c1`, the activity change, negative = cytotoxicity was -18.2% (inactive). For the compound `CC(=O)C1=C(O)C(=O)N(CCc2c[nH]c3ccccc23)C1c1ccc(O)cc1` (stereo unspecified), the activity change, negative = cytotoxicity is -8.38% (inactive).

As to `CN(C1=NC(=O)C(CC(=O)Nc2ccc(Br)cc2)S1)c1ccc(O)cc1` (stereo unspecified), the activity change, negative = cytotoxicity is -8.95% (inactive).

In the case of `CC(=O)N1CCC(C(=O)NCCOc2cccc(C)c2)CC1`, the activity change, negative = cytotoxicity was -15.7% (inactive). Under `CCOc1ccccc1CN1CCNC(=O)C1CC(=O)NCc1nccn1CC` (stereo unspecified) stands -14.3% (inactive); under `C[C@H]1CN([C@@H](C)CO)C(=O)c2cccc(NS(C)(=O)=O)c2O[C@@H]1CN(C)Cc1ccc(Oc2ccccc2)cc1`, -9.08% (inactive); under `C[C@@H]1O[C@@H](Oc2c(-c3cc(O)c(O)c(O)c3)oc3cc(O)cc(O)c3c2=O)[C@H](O)[C@H](O)[C@H]1O`, -5.81% (inactive). Take `Cn1nccc1C(=O)Nc1ccc(S(=O)(=O)N2CCCC2)cc1`: the activity change, negative = cytotoxicity is -14.9% (inactive). Turning to `O=c1c(O[C@@H]2O[C@H](CO)[C@@H](O)[C@H](O)[C@H]2O)c(-c2ccc(O)cc2)oc2cc(O)cc(O)c12`, the activity change, negative = cytotoxicity was -2.51% (inactive). In the case of `Cc1ccc(N2CC(C(=O)N3CCCCCC3)CC2=O)cc1` (stereo unspecified) it was -7.03% (inactive); in that of `CCN(CC(=O)Nc1ccc2c(c1)OCCO2)C(=O)CC1CCCC1`, -11.8% (inactive).

For `O=c1cc(CSc2nnnn2-c2ccc(O)cc2)nc2sccn12`, the activity change, negative = cytotoxicity was -22.1% (inactive). Turning to `COc1ccc(OC)c2[nH]c(=O)c(CCNC(=O)C(=O)c3c(C)[nH]c4ccccc34)cc12`, the activity change, negative = cytotoxicity was -1.3% (inactive).

On to `CCOC(=O)C(C)c1n[nH]c(=O)c2ccccc12` (stereo unspecified), for which the activity change, negative = cytotoxicity is -6.39% (inactive).

On to `O=C(CN1C(=O)NC2(CCCC2)C1=O)Nc1ccc(C(F)(F)F)cc1`, for which the activity change, negative = cytotoxicity was -9.2% (inactive). On to `CC1Cc2ccccc2N1C(=O)CSc1nnc2sc3ccccc3n12` (stereo unspecified), for which the activity change, negative = cytotoxicity is -7.39% (inactive). In the case of `Cc1noc(C)c1S(=O)(=O)Nc1ccc2c(c1)CC(=O)N([C@@H](C)CO)C[C@@H](C)[C@H](CN(C)S(=O)(=O)c1ccc(F)cc1)O2`, the activity change, negative = cytotoxicity is -10.5% (inactive). In the case of `C[C@@H](CN1C2=NC[C@H](Cc3ccc(O)cc3)N2C[C@H]1Cc1ccc(O)cc1)NC(=O)CCC1CCCCC1`, the activity change, negative = cytotoxicity is -8.59% (inactive). Take `CCCCN(C(=O)C1=CC=CN2CCS(=O)(=O)N=C12)c1ccccc1`: the activity change, negative = cytotoxicity was -2.89% (inactive). Consider `S=C(NCCc1ccccc1)Nc1ccccn1`, for which the activity change, negative = cytotoxicity is -3.47% (inactive). As to `O=C(Cn1nnc2ccccc21)OCC(=O)c1ccccc1`, the activity change, negative = cytotoxicity was -11.3% (inactive).

As to `CCOC(=O)c1c(CN2CCN(Cc3ccccc3)CC2)n(C)c2cc(Br)c(OC)cc12`, the activity change, negative = cytotoxicity was -17.4% (inactive). For `OCCC1CN(Cc2cccn2-c2ccccn2)CCN1C1CCCCC1` (stereo unspecified), the activity change, negative = cytotoxicity was -20.5% (inactive). With `NC1=NC[C@H](Cc2ccc(O)cc2)N1CC1CCCCC1`, the activity change, negative = cytotoxicity was -11.8% (inactive). Take `CCn1c(SCC(=O)NC2CC2)nnc1-c1ccccc1`: the activity change, negative = cytotoxicity was -6.27% (inactive). With `CC(=O)NC1(c2nnnn2CCOC(=O)Nc2ccc(Cl)cc2)CCCCC1`, the activity change, negative = cytotoxicity was 5.78% (inactive).

As for `CC(C)N(C)C(=O)CCc1nnc(CCc2c[nH]c3ccccc23)o1`, the activity change, negative = cytotoxicity was -10.2% (inactive). As to `O=C(Nc1oc2ccccc2c(=O)c1-c1ccc(Cl)cc1)c1ccco1`, the activity change, negative = cytotoxicity is -2.88% (inactive). In the case of `CN(C)c1ccc(NC(=O)CN2C(=O)CC(c3ccccc3)=Nc3ccccc32)cc1`, the activity change, negative = cytotoxicity is -19.2% (inactive).

Turning to `Cc1cc(C)cc(CC(=O)N2CCC2(C)C(=O)NS(=O)(=O)c2ccc(Br)cc2)c1` (stereo unspecified), the activity change, negative = cytotoxicity is -4.97% (inactive). Take `CCOC(C(=O)OCCCN(CC)CC)(c1ccccc1)c1ccccc1`: the activity change, negative = cytotoxicity was -17.8% (inactive). Consider `COc1ccccc1NS(=O)(=O)c1cccc(C(=O)NCC2(N3CCCCC3)CCCCC2)c1`, for which the activity change, negative = cytotoxicity was -10.5% (inactive). For the compound `Cc1ccc(SCC(=O)c2sc(-c3ccccc3)nc2C)cc1`, the activity change, negative = cytotoxicity was -11.9% (inactive). On to `Cc1noc(C)c1S(=O)(=O)Nc1ccc2c(c1)CC(=O)N([C@H](C)CO)C[C@@H](C)[C@@H](CN(C)S(=O)(=O)c1ccc(F)cc1)O2`, for which the activity change, negative = cytotoxicity is -0.682% (inactive). For `O=C1NC(Cc2ccc(O)cc2)c2nc3cc(Cl)ccc3c(=O)n2-c2ncccc21` (stereo unspecified), the activity change, negative = cytotoxicity is -16.3% (inactive). `COc1cccc(NS(=O)(=O)c2ccc3c(c2)C2C=CCC2C(c2ccc(C(=O)O)cc2)N3)c1` (stereo unspecified): the activity change, negative = cytotoxicity is -7.82% (inactive).

Consider `Cc1cccc(C)c1NC(=O)CN1CCNCC1`, for which the activity change, negative = cytotoxicity is -9.95% (inactive). Consider `O=C(CCN1C(=O)C2C3C=CC(C4CC34)C2C1=O)Oc1ccccc1` (stereo unspecified), for which the activity change, negative = cytotoxicity was -3.44% (inactive). As to `COc1cccc(NC(=O)CN(C)C(=O)/C=C/c2cc(OC)ccc2OC)c1`, the activity change, negative = cytotoxicity is -4.31% (inactive).

As for `O=C(NCCN1CCOCC1)c1cccnc1SCc1ccccc1Cl`, the activity change, negative = cytotoxicity was -5.22% (inactive). In the case of `O=C1C[C@@H](c2ccc(O[C@@H]3O[C@H](CO)[C@@H](O)[C@H](O)[C@H]3O)cc2)Oc2cc(O)ccc21`, the activity change, negative = cytotoxicity is -5.71% (inactive). With `Cc1[nH]c2ccc(C(=O)NC3CCCC3)cc2c1C`, the activity change, negative = cytotoxicity is -3.79% (inactive).

Turning to `O=C1NC[C@H](Cc2ccccc2)N(C[C@H]2CCCN2C[C@H](Cc2ccc(O)cc2)N2C[C@H](Cc3ccc(O)cc3)N(CC3CCCCCC3)C(=O)C2=O)C1=O`, the activity change, negative = cytotoxicity was -18.9% (inactive). As for `CN1C(=O)NC(c2ccccc2)C2=C1CN(c1cccc(C(F)(F)F)c1)C2=O` (stereo unspecified), the activity change, negative = cytotoxicity was -4.45% (inactive).
